Experimental data from ChEMBL document CHEMBL5678818, “Discovery of potent SOS1 inhibitors that block RAS activation via disruption of the RAS-SOS1 interaction” (Proc Natl Acad Sci U S A, 2019).

Experiments:
[1] = target: Macrophage-stimulating protein receptor (Homo sapiens) (UniProt Q04912); assay: Inhibition of MST1R (unknown origin) assessed as residual activity at 1000 nM by KINOMEscan analysis relative to control
[2] = target: Mitogen-activated protein kinase kinase kinase 14 (Homo sapiens) (UniProt Q99558); assay: Inhibition of NIK (unknown origin) assessed as residual activity at 1000 nM by KINOMEscan analysis relative to control
[3] = target: T1, Testis-specific serine/threonine-protein kinase 1 (Homo sapiens) (UniProt Q9BXA7); assay: Inhibition of TSSK1B (unknown origin) assessed as residual activity at 1000 nM by KINOMEscan analysis relative to control
T1 sequence (whole entry): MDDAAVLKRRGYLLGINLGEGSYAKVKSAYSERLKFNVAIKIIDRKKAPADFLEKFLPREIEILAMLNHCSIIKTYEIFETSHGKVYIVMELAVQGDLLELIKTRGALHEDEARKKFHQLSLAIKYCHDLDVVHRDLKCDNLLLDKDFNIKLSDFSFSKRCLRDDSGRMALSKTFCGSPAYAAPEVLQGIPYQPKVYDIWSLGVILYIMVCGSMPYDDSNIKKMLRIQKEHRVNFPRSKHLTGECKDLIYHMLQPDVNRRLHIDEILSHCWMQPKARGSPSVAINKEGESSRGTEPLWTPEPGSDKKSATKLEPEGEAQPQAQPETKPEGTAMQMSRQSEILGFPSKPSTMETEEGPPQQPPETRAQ

[4] = target: Tyrosine-protein kinase FRK (Homo sapiens) (UniProt P42685); assay: Inhibition of FRK (unknown origin) assessed as residual activity at 1000 nM by KINOMEscan analysis relative to control
Tyrosine-protein kinase FRK (Homo sapiens), sequence (P42685 whole entry): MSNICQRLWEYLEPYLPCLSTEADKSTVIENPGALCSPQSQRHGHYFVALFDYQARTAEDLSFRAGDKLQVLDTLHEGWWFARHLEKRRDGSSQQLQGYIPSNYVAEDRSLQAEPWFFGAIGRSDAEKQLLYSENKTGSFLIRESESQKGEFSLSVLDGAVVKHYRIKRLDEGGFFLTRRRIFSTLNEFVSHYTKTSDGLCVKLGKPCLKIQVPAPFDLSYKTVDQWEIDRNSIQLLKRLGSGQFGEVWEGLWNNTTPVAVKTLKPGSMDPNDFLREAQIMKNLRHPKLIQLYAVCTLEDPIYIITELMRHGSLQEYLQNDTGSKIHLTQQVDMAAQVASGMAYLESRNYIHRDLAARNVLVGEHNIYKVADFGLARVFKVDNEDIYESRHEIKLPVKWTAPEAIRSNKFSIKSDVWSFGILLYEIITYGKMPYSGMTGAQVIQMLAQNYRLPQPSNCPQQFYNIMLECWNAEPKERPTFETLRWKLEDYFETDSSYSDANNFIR

[5] = target: Serine/threonine-protein kinase 38 (Homo sapiens) (UniProt Q15208); assay: Inhibition of NDR1 (unknown origin) assessed as residual activity at 1000 nM by KINOMEscan analysis relative to control
Serine/threonine-protein kinase 38 (Homo sapiens), sequence (Q15208 2-465 limits assumed): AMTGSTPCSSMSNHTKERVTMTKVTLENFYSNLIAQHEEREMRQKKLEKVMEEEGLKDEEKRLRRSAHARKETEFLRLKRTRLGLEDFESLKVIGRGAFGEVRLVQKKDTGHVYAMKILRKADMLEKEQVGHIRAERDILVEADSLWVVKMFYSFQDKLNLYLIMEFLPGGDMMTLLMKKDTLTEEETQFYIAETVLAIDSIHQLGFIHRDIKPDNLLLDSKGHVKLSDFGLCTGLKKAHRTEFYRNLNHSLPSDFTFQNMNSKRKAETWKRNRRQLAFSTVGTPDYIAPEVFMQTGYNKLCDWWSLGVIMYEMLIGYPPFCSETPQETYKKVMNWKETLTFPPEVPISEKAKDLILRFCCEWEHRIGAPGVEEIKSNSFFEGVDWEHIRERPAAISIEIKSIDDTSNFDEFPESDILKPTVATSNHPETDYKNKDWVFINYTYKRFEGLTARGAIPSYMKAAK

[6] = target: Dual specificity tyrosine-phosphorylation-regulated kinase 1A (Homo sapiens) (UniProt Q13627); assay: Inhibition of DYRK1A (unknown origin) assessed as residual activity at 1000 nM by KINOMEscan analysis relative to control
[7] = target: 5'-AMP-activated protein kinase catalytic subunit alpha-2 (Homo sapiens) (UniProt P54646); assay: Inhibition of AMPK-alpha2 (unknown origin) assessed as residual activity at 1000 nM by KINOMEscan analysis relative to control
5'-AMP-activated protein kinase catalytic subunit alpha-2 (Homo sapiens), sequence (P54646 whole entry, looked up, canonical isoform): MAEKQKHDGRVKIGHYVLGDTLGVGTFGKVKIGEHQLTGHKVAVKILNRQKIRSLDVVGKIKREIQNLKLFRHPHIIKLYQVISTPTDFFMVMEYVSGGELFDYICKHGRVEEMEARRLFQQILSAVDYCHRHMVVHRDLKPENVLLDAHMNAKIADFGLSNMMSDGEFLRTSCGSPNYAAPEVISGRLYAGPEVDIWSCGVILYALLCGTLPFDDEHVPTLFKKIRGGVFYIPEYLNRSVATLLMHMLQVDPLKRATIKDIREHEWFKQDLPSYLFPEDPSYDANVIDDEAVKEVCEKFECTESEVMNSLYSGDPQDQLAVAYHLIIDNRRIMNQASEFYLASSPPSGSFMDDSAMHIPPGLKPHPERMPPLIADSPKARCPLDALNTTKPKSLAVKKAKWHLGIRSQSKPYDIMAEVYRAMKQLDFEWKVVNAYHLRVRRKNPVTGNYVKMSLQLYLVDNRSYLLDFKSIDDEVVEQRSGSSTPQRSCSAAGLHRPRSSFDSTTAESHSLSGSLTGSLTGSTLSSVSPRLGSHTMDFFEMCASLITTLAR

[8] = target: Casein kinase I isoform gamma-2 (Homo sapiens) (UniProt P78368); assay: Inhibition of CSNK1G2 (unknown origin) assessed as residual activity at 1000 nM by KINOMEscan analysis relative to control
Casein kinase I isoform gamma-2 (Homo sapiens), sequence (P78368 whole entry, looked up, canonical isoform): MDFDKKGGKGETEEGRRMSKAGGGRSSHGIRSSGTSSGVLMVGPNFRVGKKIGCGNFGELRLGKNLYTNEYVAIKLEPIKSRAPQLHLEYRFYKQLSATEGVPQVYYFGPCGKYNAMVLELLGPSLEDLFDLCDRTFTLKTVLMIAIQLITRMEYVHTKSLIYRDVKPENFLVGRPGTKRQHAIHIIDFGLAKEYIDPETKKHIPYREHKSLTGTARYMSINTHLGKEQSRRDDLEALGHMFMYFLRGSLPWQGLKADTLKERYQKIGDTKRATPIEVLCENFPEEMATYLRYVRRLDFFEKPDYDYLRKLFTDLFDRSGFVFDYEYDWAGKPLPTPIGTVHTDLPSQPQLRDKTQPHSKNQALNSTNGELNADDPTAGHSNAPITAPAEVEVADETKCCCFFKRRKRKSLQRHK

[9] = target: Insulin receptor (Homo sapiens) (UniProt P06213); assay: Inhibition of INSR (unknown origin) assessed as residual activity at 1000 nM by KINOMEscan analysis relative to control
[10] = target: T2, Ephrin type-B receptor 3 (Homo sapiens) (UniProt P54753); assay: Inhibition of EPHB3 (unknown origin) assessed as residual activity at 1000 nM by KINOMEscan analysis relative to control
T2 sequence (whole entry): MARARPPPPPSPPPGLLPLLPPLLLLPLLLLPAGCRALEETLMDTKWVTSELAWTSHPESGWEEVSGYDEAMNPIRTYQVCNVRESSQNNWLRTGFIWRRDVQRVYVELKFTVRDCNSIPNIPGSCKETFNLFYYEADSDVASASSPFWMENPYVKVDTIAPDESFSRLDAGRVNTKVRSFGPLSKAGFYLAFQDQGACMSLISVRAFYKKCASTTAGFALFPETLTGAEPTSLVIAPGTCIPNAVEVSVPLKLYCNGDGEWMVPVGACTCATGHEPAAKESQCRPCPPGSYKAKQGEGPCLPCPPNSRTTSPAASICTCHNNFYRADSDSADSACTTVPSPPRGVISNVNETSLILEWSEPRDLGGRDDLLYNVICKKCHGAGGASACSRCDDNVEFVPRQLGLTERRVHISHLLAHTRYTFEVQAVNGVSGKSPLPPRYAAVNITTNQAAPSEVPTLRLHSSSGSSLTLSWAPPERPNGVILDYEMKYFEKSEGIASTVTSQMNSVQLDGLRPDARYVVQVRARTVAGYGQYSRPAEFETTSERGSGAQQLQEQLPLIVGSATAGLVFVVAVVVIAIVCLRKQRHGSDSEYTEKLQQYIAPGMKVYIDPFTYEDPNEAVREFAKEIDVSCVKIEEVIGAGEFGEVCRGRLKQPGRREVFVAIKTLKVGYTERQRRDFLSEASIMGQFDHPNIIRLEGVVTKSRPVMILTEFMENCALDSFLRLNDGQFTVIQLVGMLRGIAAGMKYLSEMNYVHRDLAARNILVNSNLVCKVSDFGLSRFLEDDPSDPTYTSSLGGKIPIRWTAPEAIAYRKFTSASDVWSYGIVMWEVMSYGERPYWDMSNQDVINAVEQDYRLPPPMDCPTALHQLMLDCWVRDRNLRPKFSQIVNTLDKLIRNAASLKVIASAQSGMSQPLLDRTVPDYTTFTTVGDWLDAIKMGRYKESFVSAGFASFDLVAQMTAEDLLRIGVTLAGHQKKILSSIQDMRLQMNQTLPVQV

[11] = target: Serine/threonine-protein kinase WNK1 (Homo sapiens) (UniProt Q9H4A3); assay: Inhibition of WNK1 (unknown origin) assessed as residual activity at 1000 nM by KINOMEscan analysis relative to control
[12] = target: Mitogen-activated protein kinase kinase kinase 12 (Homo sapiens) (UniProt Q12852); assay: Inhibition of DLK (unknown origin) assessed as residual activity at 1000 nM by KINOMEscan analysis relative to control
Mitogen-activated protein kinase kinase kinase 12 (Homo sapiens), sequence (Q12852 whole entry, looked up): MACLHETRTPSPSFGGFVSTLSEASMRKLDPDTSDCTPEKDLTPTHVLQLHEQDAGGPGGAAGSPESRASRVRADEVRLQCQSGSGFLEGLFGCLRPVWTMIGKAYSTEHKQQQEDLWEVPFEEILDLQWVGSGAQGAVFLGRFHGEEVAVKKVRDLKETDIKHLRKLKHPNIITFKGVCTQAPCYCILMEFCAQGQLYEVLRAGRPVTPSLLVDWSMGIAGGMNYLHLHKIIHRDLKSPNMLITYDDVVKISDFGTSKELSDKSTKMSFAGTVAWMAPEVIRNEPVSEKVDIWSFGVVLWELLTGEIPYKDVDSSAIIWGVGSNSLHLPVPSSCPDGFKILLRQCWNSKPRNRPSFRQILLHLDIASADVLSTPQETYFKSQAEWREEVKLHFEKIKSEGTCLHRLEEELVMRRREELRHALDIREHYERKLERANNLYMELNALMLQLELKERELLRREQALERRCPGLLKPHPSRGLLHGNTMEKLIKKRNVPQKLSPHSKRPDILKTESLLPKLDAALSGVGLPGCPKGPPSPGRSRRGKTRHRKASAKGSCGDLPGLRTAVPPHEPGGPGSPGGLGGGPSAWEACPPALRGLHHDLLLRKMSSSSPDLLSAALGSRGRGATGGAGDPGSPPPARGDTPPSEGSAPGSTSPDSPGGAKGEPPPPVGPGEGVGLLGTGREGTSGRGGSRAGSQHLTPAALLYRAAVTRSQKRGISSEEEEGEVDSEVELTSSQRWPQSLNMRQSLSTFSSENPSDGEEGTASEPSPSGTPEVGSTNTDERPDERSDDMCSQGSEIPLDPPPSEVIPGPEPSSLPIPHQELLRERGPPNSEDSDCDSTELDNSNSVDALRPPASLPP

[13] = target: Protein kinase C eta type (Homo sapiens) (UniProt P24723); assay: Inhibition of PRKCH (unknown origin) assessed as residual activity at 1000 nM by KINOMEscan analysis relative to control
Protein kinase C eta type (Homo sapiens), sequence (P24723 whole entry): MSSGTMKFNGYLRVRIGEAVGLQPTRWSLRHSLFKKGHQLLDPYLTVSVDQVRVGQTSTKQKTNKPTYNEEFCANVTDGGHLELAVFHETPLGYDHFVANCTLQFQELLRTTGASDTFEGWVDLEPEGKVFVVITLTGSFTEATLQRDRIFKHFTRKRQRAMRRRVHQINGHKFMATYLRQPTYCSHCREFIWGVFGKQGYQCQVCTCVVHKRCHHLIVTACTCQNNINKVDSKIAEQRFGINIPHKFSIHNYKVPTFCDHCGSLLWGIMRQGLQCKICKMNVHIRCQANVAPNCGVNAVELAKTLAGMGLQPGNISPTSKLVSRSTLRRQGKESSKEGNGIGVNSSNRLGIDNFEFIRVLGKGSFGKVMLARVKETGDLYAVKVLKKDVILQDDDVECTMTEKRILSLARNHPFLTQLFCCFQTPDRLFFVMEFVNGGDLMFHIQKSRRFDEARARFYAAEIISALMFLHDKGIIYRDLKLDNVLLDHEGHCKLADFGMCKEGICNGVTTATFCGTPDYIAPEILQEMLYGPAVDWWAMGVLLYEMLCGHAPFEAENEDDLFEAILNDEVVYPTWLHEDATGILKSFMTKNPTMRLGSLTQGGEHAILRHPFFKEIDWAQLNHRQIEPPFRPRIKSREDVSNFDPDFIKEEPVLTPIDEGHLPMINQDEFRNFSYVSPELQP

Macrophage-stimulating protein receptor (Homo sapiens), sequence (Q04912 25-304 limits assumed): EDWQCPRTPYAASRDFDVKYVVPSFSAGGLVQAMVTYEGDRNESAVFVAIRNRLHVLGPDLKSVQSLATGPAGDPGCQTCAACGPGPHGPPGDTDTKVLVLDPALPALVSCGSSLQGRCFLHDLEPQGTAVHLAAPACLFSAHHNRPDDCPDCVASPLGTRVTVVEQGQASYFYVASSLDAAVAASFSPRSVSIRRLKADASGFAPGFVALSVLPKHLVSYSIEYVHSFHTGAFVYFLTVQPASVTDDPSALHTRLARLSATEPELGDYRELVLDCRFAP
Macrophage-stimulating protein receptor (Homo sapiens), sequence (Q04912 310-1400 limits assumed): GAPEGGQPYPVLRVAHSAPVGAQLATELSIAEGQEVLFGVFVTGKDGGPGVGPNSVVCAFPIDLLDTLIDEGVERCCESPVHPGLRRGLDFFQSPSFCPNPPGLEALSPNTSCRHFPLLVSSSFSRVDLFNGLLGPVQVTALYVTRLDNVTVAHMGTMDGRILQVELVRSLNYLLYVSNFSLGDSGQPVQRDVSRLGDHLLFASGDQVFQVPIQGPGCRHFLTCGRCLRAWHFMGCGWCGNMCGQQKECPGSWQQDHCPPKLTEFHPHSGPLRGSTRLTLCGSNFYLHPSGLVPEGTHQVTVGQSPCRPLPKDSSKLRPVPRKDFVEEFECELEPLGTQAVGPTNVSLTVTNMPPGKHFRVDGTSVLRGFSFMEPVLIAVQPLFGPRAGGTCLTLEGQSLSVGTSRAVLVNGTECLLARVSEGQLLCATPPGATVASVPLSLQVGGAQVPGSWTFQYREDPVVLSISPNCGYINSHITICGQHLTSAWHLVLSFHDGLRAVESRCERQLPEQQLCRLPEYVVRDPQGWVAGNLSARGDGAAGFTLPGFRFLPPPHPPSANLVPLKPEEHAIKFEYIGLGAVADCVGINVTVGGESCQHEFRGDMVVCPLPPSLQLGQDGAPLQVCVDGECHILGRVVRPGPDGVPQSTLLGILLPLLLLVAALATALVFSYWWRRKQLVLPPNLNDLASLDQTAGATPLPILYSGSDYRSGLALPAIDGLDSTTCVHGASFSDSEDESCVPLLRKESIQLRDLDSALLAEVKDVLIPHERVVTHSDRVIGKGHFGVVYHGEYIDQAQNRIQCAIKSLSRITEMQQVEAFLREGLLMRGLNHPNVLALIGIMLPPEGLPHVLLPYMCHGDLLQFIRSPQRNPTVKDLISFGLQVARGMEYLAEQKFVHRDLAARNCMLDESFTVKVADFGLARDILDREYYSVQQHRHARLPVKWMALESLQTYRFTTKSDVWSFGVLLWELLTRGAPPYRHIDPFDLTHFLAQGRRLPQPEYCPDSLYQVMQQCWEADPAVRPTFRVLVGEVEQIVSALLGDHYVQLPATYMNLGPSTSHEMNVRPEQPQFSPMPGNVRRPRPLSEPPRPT

SMILES: COc1cc2nc(C)nc(N[C@H](C)c3cccc(-c4cn[nH]c4)c3)c2cc1OC
- Activity [1]: 75%
- Activity [2]: 88%
- Activity [3]: 98%
- Activity [4]: 76%
- Activity [5]: 64%
- Activity [6]: 86%
- Activity [7]: 81%
- Activity [8]: 100%
- Activity [9]: 80%
- Activity [10]: 100%
- Activity [11]: 86%
- Activity [12]: 95%
- Activity [13]: 95%

SMILES: COc1cc2ncnc(N[C@H](C)c3cccc4ccccc34)c2cc1OC
- Activity [1]: 100%
- Activity [2]: 91%
- Activity [3]: 100%
- Activity [4]: 94%
- Activity [5]: 79%
- Activity [6]: 83%
- Activity [7]: 98%
- Activity [8]: 100%
- Activity [9]: 82%
- Activity [10]: 100%
- Activity [11]: 100%
- Activity [12]: 92%
- Activity [13]: 100%
